The source of these data is PubChem BioAssay AID1996.

The structures appear in SMILES notation. In brackets after ≈: the same amount, converted by molar mass. A value given as a limit tells only on which side of the number the result lay.

The conditions of this data set: buffer; pH 7.4; 200.0 µM.
Turning to `COc1ccc(OCC(=O)Nc2ccc3c(c2)CCC3)cc1`, the kinetic solubility (as a rule, solubility judged after dilution from a stock solution rather than from solid) worked out at 19.3 µg/mL (≈ 64.9 µM). Under `Cl.O=C(NCCN1CCCC1)c1ccc(Cl)cc1Cl` stands greater than 48.5 µg/mL; under `COc1ccccc1OCC(=O)Nc1cc(S(=O)(=O)N2CCOCC2)ccc1N1CCCCC1`, 3.1 µg/mL (≈ 6.33 µM); under `O=C1CC(N2CCc3ccccc32)C(=O)N1c1ccccc1` (stereo not drawn), 37.3 µg/mL (≈ 128 µM).

For `O=C(NCCO)C(=O)c1c(-c2ccccc2)cc2ccccn12`, the solubility (kinetic) was determined as 38.2 µg/mL (≈ 124 µM). Turning to `CN(C)/C=N/S(=O)(=O)c1ccc(Cl)c(Cl)c1`, the solubility (kinetic) is greater than 42.2 µg/mL. Compound `O=C(COC(=O)c1ccc(Cl)c(S(=O)(=O)N2CCCC2)c1)NCc1ccccc1` registered a solubility (kinetic) of 26.1 µg/mL (≈ 59.7 µM). `Cc1nc(SCc2ccc(O)c([N+](=O)[O-])c2)c([N+](=O)[O-])[nH]1`: the kinetic solubility was greater than 46.5 µg/mL. In turn, `O=c1cc(CSc2ccccc2)[nH]c2ccccc12` came in with a kinetic solubility of 39.7 µg/mL (≈ 148 µM). Under `CCOC(=O)CC1COc2ccccc2N1C(=O)c1ccc(F)cc1` (stereo not drawn) stands 47 µg/mL (≈ 137 µM); under `COc1ccc(S(=O)(=O)NCCOc2ccccc2)cc1F`, 2.4 µg/mL (≈ 7.38 µM).

`CCOc1ccc(C(=O)OC(C)CN2CCN(C)CC2)cc1.Cl` (stereo not drawn) returned a kinetic solubility greater than 51.4 µg/mL. `COc1ccccc1P(=O)(c1ccccc1)c1ccccc1NC(C)=O` (stereo not drawn) registered a solubility (kinetic) greater than 54.8 µg/mL. The same measure for `Fc1cccc(NCCc2c[nH]c3ccccc23)n1`: 35.6 µg/mL (≈ 139 µM); for `O=C(O)c1csc(-c2ccccc2)n1`: 28.2 µg/mL (≈ 137 µM); for `O=C(O)c1ccc(Cl)c(NCc2cccs2)c1`: 34.8 µg/mL (≈ 130 µM). Under `Cc1nc(Cl)sc1C(=O)Nc1ccc(C(C)(C)C)cc1` stands 11.3 µg/mL (≈ 36.6 µM). In the case of `Cc1c[n+](CC(=O)c2ccccc2)c(C)cn1.[Br-]`, the solubility (kinetic) is 27 µg/mL. In the case of `O=C(/C=C/c1cccc(O)c1)c1ccc(N2CCOCC2)cc1`, the kinetic solubility amounted to 23.2 µg/mL (≈ 75 µM). For `OCCC1CN(Cc2ccon2)CCN1Cc1ccc(F)c(F)c1` (stereo not drawn), the solubility (kinetic) amounted to 40.7 µg/mL (≈ 121 µM).

In turn, `O=C(Cc1ccccc1F)OCN1C(=O)c2ccccc2C1=O` had a solubility (kinetic) of 47 µg/mL (≈ 150 µM).

Regarding `CCC(C(=O)NCCc1ccc(S(N)(=O)=O)cc1)c1ccccc1` (stereo not drawn), the kinetic solubility was greater than 52 µg/mL. For `O=C(Nc1cccc(S(=O)(=O)N2CCOCC2)c1)c1cc(=O)[nH]c2ccccc12`, the solubility (kinetic) came to 9.9 µg/mL (≈ 23.9 µM). The same measure for `CC(=O)c1sc(NC(=O)c2ccc(Br)o2)nc1C`: 12.8 µg/mL (≈ 38.9 µM); for `O=C(c1ccc2ncsc2c1)N1CCCCC1`: greater than 36.9 µg/mL; for `Cc1cccc(NC(=O)CN2C(=O)NC3(CCCC3)C2=O)n1`: greater than 45.3 µg/mL. Compound `O=C(Nc1csc(Cl)c1)c1ccccc1` came in with a solubility (kinetic) of 6.2 µg/mL (≈ 26.1 µM).

`Cc1ccc(NC(=O)CSc2ccc3c(c2)OCCO3)nc1` returned a solubility (kinetic) greater than 47.5 µg/mL. Under `COc1ccc(NC2c3ccccc3C(=O)N2c2ccccn2)cc1` (stereo not drawn) stands 34.1 µg/mL (≈ 103 µM); under `CN(C)/C=C(\C#N)S(=O)(=O)c1ccc(Cl)cc1`, 37.7 µg/mL (≈ 139 µM).

`Cc1ccc(NC(=S)NCc2ccco2)c(C)c1` registered a solubility (kinetic) greater than 39.1 µg/mL. The same measure for `COc1ccc(NC(=O)/C(C#N)=C/c2cccnc2)c(OC)c1`: 24.8 µg/mL (≈ 80.2 µM); for `CC(C)CNC(=O)CO/N=C/c1ccccc1Cl`: greater than 40.3 µg/mL. The same measure for `Cc1onc(-c2ccccc2Cl)c1C(=O)Nc1cccc(S(=O)(=O)N2CCOCC2)c1`: 2 µg/mL (≈ 4.33 µM); for `COc1cccc2[nH]c3ccccc3c(=O)c12`: greater than 33.8 µg/mL. In turn, `O=C(O)C1Cc2ccccc2CN1C(=O)CCl` (stereo not drawn) had a kinetic solubility greater than 38.1 µg/mL. `O=C(Cc1ccc(F)cc1)Nc1nccs1` displayed a solubility (kinetic) of 34.4 µg/mL (≈ 146 µM). As to `Cn1cc(C(=O)Nc2ccc(C#N)cc2)c2ccccc2c1=O`, the kinetic solubility is less than 0.2 µg/mL. The same measure for `O=C(NC1CCCCCC1)c1ccco1`: greater than 31.1 µg/mL; for `Cc1ccccc1NC(=S)Nc1ccccc1`: 18.8 µg/mL (≈ 77.6 µM). In turn, `COc1ccccc1OCCC(=O)OCC(=O)NCc1ccc(Cl)cc1` displayed a solubility (kinetic) of 3.4 µg/mL (≈ 9 µM).

As to `COC(=O)/C(C#N)=C/c1c(Oc2cccc(C)c2C)nc2ccccn2c1=O`, the kinetic solubility turned out to be 1 µg/mL (≈ 2.66 µM). Turning to `COc1cccc(CC(=O)NC2CCSc3ccccc32)c1` (stereo not drawn), the kinetic solubility was 20.9 µg/mL (≈ 66.7 µM). `Brc1ccc(-n2cnc(-c3ccccc3)c2)cc1` displayed a solubility (kinetic) of 1 µg/mL (≈ 3.34 µM). The same measure for `Cc1[nH]c2ccc(C(=O)NCc3ccccn3)cc2c1C`: greater than 41.9 µg/mL; for `COc1ccccc1NC(=O)c1ccc(NC(=O)CN2CCCCC2)cc1.O=C(O)C(=O)O`: greater than 68.6 µg/mL; for `CN(CCc1ccccc1)C1CCCN(S(=O)(=O)N(C)C)C1` (stereo not drawn): greater than 48.8 µg/mL. Compound `C=CCOc1cccc(C2NC(=O)c3ccccc3O2)c1` (stereo not drawn) showed a kinetic solubility of 3 µg/mL (≈ 10.7 µM). As for `CCC(NC(=O)Nc1cc(C)on1)(C(F)(F)F)C(F)(F)F`, the solubility (kinetic) amounted to 14.6 µg/mL (≈ 45.7 µM). Under `COCCNC(=O)/C(C#N)=C/c1cc(Br)c(O)c(OC)c1` stands 45 µg/mL (≈ 127 µM); under `CCCOc1ccc(C(C)=O)cc1Cc1c(O)[nH]c(=S)[nH]c1=O`, 29.4 µg/mL (≈ 87.9 µM).

Turning to `COc1ccc(C/C(N)=N/OC(=O)c2ccco2)cc1OC`, the solubility (kinetic) was greater than 45.6 µg/mL. `N#CCN1C(=O)C(=O)N(Cc2cccc(Cl)c2)C1=O` displayed a kinetic solubility greater than 41.7 µg/mL.

In turn, `CCOC(=O)c1ccccc1NC(=O)C1CSC2(C)CCC(=O)N12` (stereo not drawn) registered a kinetic solubility greater than 52.3 µg/mL. In turn, `Cc1cnc(C(=O)OC(C)C(=O)NCc2ccccc2)cn1` (stereo not drawn) displayed a kinetic solubility greater than 44.9 µg/mL. Under `Cc1cc(C(=O)Nc2ccccc2)c2ccccc2n1` stands 3 µg/mL (≈ 11.4 µM). Under `Cc1ccccc1OCC(=O)NCCCNC(=O)c1ccccn1` stands greater than 49.1 µg/mL; under `COc1cccc2cc(C(=O)NCCc3ccccc3)c(=O)oc12`, less than 0.7 µg/mL. Under `COc1cccc(-c2noc(CCC(=O)NCC3CCCO3)n2)c1` (stereo not drawn) stands greater than 49.7 µg/mL. `O=C(Nc1cccc2ncccc12)c1ccc(OCc2ccccc2)cc1` showed a kinetic solubility of less than 0.4 µg/mL. On to `CNC(=O)c1ccc(NC(=O)CCc2c(C)noc2C)cc1`, for which the solubility (kinetic) is greater than 45.2 µg/mL. Under `O=C(OCC(=O)N1CCOCC1)c1ccc(F)cc1Cl` stands greater than 45.3 µg/mL; under `Cc1nc(NC(=O)CN2CC(C)OC(C)C2)sc1C(=O)N(C)C` (stereo not drawn), 44.2 µg/mL (≈ 130 µM). The same measure for `CCOc1c(Cl)cc(CNCc2ccccn2)cc1OC.Cl`: 45.2 µg/mL; for `N#Cc1c(-c2cccc(Cl)c2)[nH]c(=S)[nH]c1=O`: greater than 39.6 µg/mL; for `CN(C)/C(=N\S(=O)(=O)c1ccccc1)c1ccccc1`: greater than 43.3 µg/mL. The same measure for `NC(=O)c1ccc(NC(=O)Nc2ccc3c(c2)OCO3)cc1`: 3.8 µg/mL (≈ 12.7 µM); for `Clc1ccc2nc(-c3ccc4c(c3)OCO4)cn2c1`: less than 0.3 µg/mL; for `COc1ccc(CCN2CC(C(=O)NCC(c3ccccc3)N(C)C)CC2=O)cc1OC` (stereo not drawn): greater than 65.9 µg/mL. `O=C(c1ccc2c(c1)OCO2)C1CCCN(C(=O)C2CCOCC2)C1` (stereo not drawn) came in with a kinetic solubility greater than 51.8 µg/mL. The compound `CCOC(=O)C1(CCOc2ccccc2)CCN(CC2CC2)CC1` displayed a kinetic solubility of 45.7 µg/mL (≈ 138 µM). Under `CN(Cc1ccccc1)C(=O)COc1ccccc1Cl` stands 40 µg/mL (≈ 138 µM); under `O=[N+]([O-])c1ccc(NCCCO)c(S(=O)(=O)N2CCOCC2)c1`, 48.8 µg/mL (≈ 141 µM). Under `O=C(CN1CCCC1)Nc1ccccc1Sc1ccc(Cl)cc1` stands 8.6 µg/mL (≈ 24.8 µM).

Consider `Cc1ccc(OCC(O)CN2CCCC2)cc1` (stereo not drawn), for which the solubility (kinetic) is greater than 35.3 µg/mL. Under `O=C(Nc1cccc([N+](=O)[O-])c1)NC1CCS(=O)(=O)C1` (stereo not drawn) stands greater than 44.9 µg/mL; under `CCN(CC(=O)NC1CC1)S(=O)(=O)c1ccc(C)cc1`, greater than 44.5 µg/mL. Under `CCC1(CC)NC(=O)N(Cc2nc3ccccc3s2)C1=O` stands greater than 45.5 µg/mL; under `CCOc1ccc(S(=O)(=O)NCCC(=O)OCC(=O)NC(=O)c2cccn2C)cc1`, 22.2 µg/mL (≈ 50.7 µM); under `Nc1cc(Cl)ccc1C(=O)OCC(=O)NC1CCCCC1`, 0.5 µg/mL (≈ 1.61 µM). Under `CCCCN(C(=O)c1cccc(-c2ccc(OC(C)=O)cc2)c1)c1c(N)n(CCC)c(=O)[nH]c1=O` stands 8.5 µg/mL (≈ 17.8 µM); under `O=C(CNc1ccccc1C(=O)O)c1ccccc1`, 36.3 µg/mL (≈ 142 µM).

For the compound `Cc1ccc(C)c(S(=O)(=O)/N=C(/Nc2ccccc2)c2ccccc2)c1`, the solubility (kinetic) came out at 17.2 µg/mL (≈ 47.2 µM). `Cc1ccc(C)c(OCCCC(=O)NC2CCCCC2)c1` yielded a solubility (kinetic) of 3 µg/mL (≈ 10.4 µM). Under `Cl.c1ccc(-c2ccc(CNC3CC3)cc2)cc1` stands 37.9 µg/mL; under `Cc1ccc(C(O)c2nc3ccccc3n2C)cc1` (stereo not drawn), greater than 37.8 µg/mL. The same measure for `CC1=CC(C)(C)N(C(=O)Nc2ccccc2)c2ccccc21`: 7.8 µg/mL (≈ 26.7 µM).

`Cc1ccc(NC(=O)COC(=O)CCC2CCCC2)cc1S(=O)(=O)N1CCOCC1`: the solubility (kinetic) is 15.8 µg/mL (≈ 36 µM).

Compound `C=Cn1cc[n+](CC(=O)c2ccc(OC)c(OC)c2)c1.[Br-]` returned a kinetic solubility greater than 53 µg/mL. With `Cc1cc(C(C)(C)C)cc(C)c1CCNC(=O)c1ccc[n+]([O-])c1`, the solubility (kinetic) was greater than 49 µg/mL.

As to `COc1ccc(C(C)=O)cc1COC(=O)CNC(=O)C1CCCCC1`, the solubility (kinetic) is greater than 52.1 µg/mL. The same measure for `O=C(Nc1ccc2[nH]c(=O)[nH]c2c1)c1ccc([N+](=O)[O-])o1`: 15.6 µg/mL (≈ 54.1 µM); for `NC(=O)c1ccccc1NCC(=O)c1ccc(F)cc1`: greater than 40.8 µg/mL; for `CC(=O)N/C(=C\c1ccccc1)C(=O)OCc1ccccc1`: greater than 44.3 µg/mL.

In turn, `O=C(CN1C(=O)NC2(CCOc3ccccc32)C1=O)NCCc1ccccc1` (stereo not drawn) registered a kinetic solubility greater than 56.9 µg/mL. Compound `O=C(COC(=O)c1ccc(Br)o1)NCc1ccccc1Cl` came in with a solubility (kinetic) of 9 µg/mL (≈ 24.2 µM). The same measure for `Cc1ccc2c(Cl)c(C(=O)NC3CC3)sc2c1`: less than 0.6 µg/mL. Consider `CC(C)(C)c1ccc(C(=O)NCCN2CCOCC2)cc1`, for which the solubility (kinetic) was greater than 43.6 µg/mL. As to `N#Cc1ccc(OS(=O)(=O)c2ccc(-c3ccon3)s2)cc1`, the kinetic solubility turned out to be 11.8 µg/mL (≈ 35.5 µM). Turning to `O=C1c2ccccc2C(=O)N1c1ccc(Cc2ccncc2)cc1`, the solubility (kinetic) stood at 44.9 µg/mL (≈ 143 µM).

The compound `O=C(OCCN1C(=O)c2ccccc2C1=O)[C@@H]1CC(O)CN1S(=O)(=O)c1ccccc1[N+](=O)[O-]` (stereo partly drawn) showed a kinetic solubility greater than 73.4 µg/mL. On to `O=C(O)c1cc2n(n1)C(C(F)(F)F)CC(C1CC1)N2` (stereo not drawn), for which the kinetic solubility is greater than 41.3 µg/mL. `Cc1ccccc1-n1c(-c2ccoc2)nc2ccccc2c1=O` had a solubility (kinetic) greater than 45.3 µg/mL.
